The supplement of paper PMC10599287

What was measured:
[1] = compound: CCNC(=O)C#Cc1ccc2c(C(=Nc3ccc(CN(C)C)cc3)c3ccccc3)c(O)[nH]c2c1; assay: absolute IC70 (antiproliferative, propidium iodide); higher = less potent; conditions: exposure time: 4 days
Protocol: (§1)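 Modified propidium iodide survival/proliferation assay in 294 human tumor cell lines (2D monolayer for solid tumors, suspension for hematologic lines) after 4 days of continuous exposure to 10 concentrations in half-log steps from 0.001 to 30 µM. Absolute IC70 was fitted by four-parameter nonlinear regression of T/C × 100 (%) values; 30 µM is the top dose.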

GDC-0623 = compound: O=C(NOCCO)c1ccc2cncn2c1Nc1ccc(I)cc1F [GDC-0623]; assay: as above; conditions: exposure time: 4 days
Protocol: as §1

Test System | absolute IC70 [1] [nM] | absolute IC70 (GDC-0623) [nM]
22RV1 | 616 | > 30000
786-O | 1170 | > 30000
A172 | 252 | 1590
A204 | 614 | > 30000
A427 | 283 | > 30000
A498 | 4340 | > 30000
A2780 | 546 | 24400
A-253 | > 30000 | > 30000
A-431 | 30 | 563
ACHN | 765 | > 30000
BT-474 | 4060 | > 30000
BT-549 | 1780 | > 30000
BXF_1036 | 115 | 8
BXF_1228 | 3230 | > 30000
BXF_1352 | 45 | 11
BXF_5637 | 20 | 359
CAKI-1 | 2360 | > 30000
CAL-27 | 250 | 14
CAL-33 | 346 | 517
CAL-51 | 61 | > 30000
CCRF-CEM | 13 | > 30000
CCRF-CEM-VCR | 73 | > 30000
CNXF_498 | 5620 | > 30000

Test System | absolute IC70 [1] [nM] | absolute IC70 (GDC-0623) [nM]
COLO-205 | 14 | 17
COLO-320 | 2110 | > 30000
COLO-678 | 3000 | > 30000
COLO-741 | 524 | 38.9
CXF_94 | 554 | 167
CXF_260 | 324 | 194
CXF_280 | 1550 | > 30000
CXF_1103 | 11 | 427
Caco-2 | 4760 | > 30000
Calu-1 | 3440 | > 30000
DAUDI | 10 | > 30000
DETROIT562 | 3090 | > 30000
DIFI | 91 | 522
DMS-273 | 5120 | > 30000
DND-39 | 72 | > 30000
DU-145 | 569 | 1240
DU-4475 | 9 | 4
DoTc2-4510 | 260 | > 30000
EFE-184 | 3950 | > 30000
EFO-21 | 2140 | > 30000
EFO-27 | 724 | > 30000
EGI-1 | 693 | > 30000
EJM | 2820 | > 30000

Test System | absolute IC70 [1] [nM] | absolute IC70 (GDC-0623) [nM]
EM-2 | 277 | 192
EVSA-T | 2240 | > 30000
FADU | 2260 | > 30000
FU97 | 6600 | > 30000
GP5d | 80.2 | > 30000
GXA_3011 | 97 | > 30000
GXA_3013 | 3280 | > 30000
GXA_3023 | 69 | 1440
GXA_3067 | 583 | 265
GXA_3080 | 114 | 117
GXF_251 | 944 | 3340
GXF_1172 | 510 | 1270
GXF_23132 | 20600 | > 30000
H69AR | 688 | > 30000
H-MESO-1 | 5670 | > 30000
HCC33 | 2050 | > 30000
HCC1937 | 475 | > 30000
HCC2998 | 896 | 257
HCT116 | 51 | 84
HCT-15 | 1440 | > 30000
HEC-1-A | 1580 | > 30000
HH | 1370 | > 30000
HL-60 | 27 | 6

Test System | absolute IC70 [1] [nM] | absolute IC70 (GDC-0623) [nM]
HNXF_1853 | 641 | 451
HNXF_1859 | 116 | 117
HPAC | 120 | > 30000
HPAF-II | 285 | 79
HT-29 | 392 | 87
HT-115 | 14.4 | 57.6
HT-1080 | 710 | 279
HUP-T3 | 291 | 44
HUT-78 | 72 | > 30000
Hep-G2 | 55 | 16500
Hs 729 | 8020 | > 30000
IGROV-1 | 1870 | > 30000
IM95 | 12200 | > 30000
IM-9 | 7 | 15
JHH-6 | 1140 | > 30000
JIMT-1 | 1900 | > 30000
JURKAT | 2330 | > 30000
JURL-MK1 | 149 | 11
K-562 | 2820 | > 30000
KCL-22 | 250 | > 30000
KG-1 | 33 | 25100
KLE | 5420 | > 30000
KM12 | 386 | 15100

Test System | absolute IC70 [1] [nM] | absolute IC70 (GDC-0623) [nM]
KM20L2 | 186 | 51.8
KM-H2 | 2770 | > 30000
KU-19-19 | 56 | 22
KYSE-70 | 1040 | > 30000
KYSE-150 | 2820 | > 30000
KYSE-180 | 1000 | > 30000
KYSE-520 | 525 | 158
L-363 | 692 | > 30000
LEXFAL_2665 | 223 | > 30000
LEXFAM_2531 | 26 | > 30000
LIM2405 | 31.6 | 5.96
LIM2551 | 7.49 | 3.68
LIXFC_575 | 654 | 3010
LN-229 | 281 | 102
LOU-NH91 | 2140 | > 30000
LOVO | 3680 | > 30000
LP-1 | 2160 | > 30000
LS174T | 40.4 | 72.3
LXFA_289 | 1790 | > 30000
